Earlier results on 1 compound are cited in US6670343B1, “Drugs for periodontal disease” (Toray Industries, Inc., priority 1999, dated 2003).

The conditions of this data set: reported in J. Periodontology 63, 825-830 (1992).

In the case of `NCCCC(O)(P(=O)(O)O)P(=O)(O)O` [4-amino-1-hydroxybutylidene-1,1-bisphosphonic acid], the “effect on alveolar bone resorption” value is on record as “effectively suppresses alveolar bone resorption”; the “effect on dental pocket formation and gingival inflammation” value is listed as “not effective”.
